Laboratory results taken from ChEMBL document CHEMBL3885861, “Open TG-GATES”.

Species: Rattus norvegicus
Experiment: Open TG-GATES - Regimen: Single
Type: toxicity, organism-based, Sprague-Dawley
Set-up: regimen Single, gender Male, age 6 weeks
Details: in vivo, po, 0 mg/kg, route gavage, dose level Control; for APTT / Bas / Eos / Fbg / Hb / Ht / Lym / MCH / MCHC / MCV / Mono / Neu / PT / Plat / RBC / Ret / WBC: tissue Blood; for KIDNEY_L / KIDNEY_R / KIDNEY_TOTAL: tissue Kidney; for LIVER: tissue Liver; for A/G / ALP / ALT / AST / BUN / CRE / Ca / Cl / DBIL / GLC / IP / K / LDH / Na / PL / RALB / TBIL / TC / TG / TP / gamma-GTP: tissue Plasma

Q: What does the source list for `Nc1ccc(Cc2ccc(N)cc2)cc1`?
A: TERMINAL_BW (3 h): 209.4 g; APTT (3 h): 13.9 s; Bas (3 h): 0%; Eos (3 h): 0.6%; Fbg (3 h): 263.2 mg/dL; Hb (3 h): 12.7 g/dL; Ht (3 h): 37.3%; Lym (3 h): 73.6%; MCH (3 h): 21.8 pg; MCHC (3 h): 34.1%; MCV (3 h): 63.9 fL; Mono (3 h): 3%; Neu (3 h): 21.2%; PT (3 h): 11.7 s; Plat (3 h): 145.5 x10_4/uL; RBC (3 h): 584.2 x10_4/ul; Ret (3 h): 9.5%; WBC (3 h): 100 x10_2/uL; KIDNEY_L (3 h): 0.9 g; KIDNEY_R (3 h): 0.9 g; KIDNEY_TOTAL (3 h): 1.8 g; LIVER (3 h): 9.5 g; A/G (3 h): 0.8; ALP (3 h): 1787.8 IU/L; ALT (3 h): 46.8 IU/L; AST (3 h): 90.8 IU/L; BUN (3 h): 9.8 mg/dL; CRE (3 h): 0.2 mg/dL; Ca (3 h): 11 mg/dL; Cl (3 h): 106.8 meq/L; DBIL (3 h): 0.024 mg/dL; GLC (3 h): 158.2 mg/dL; IP (3 h): 9.1 mg/dL; K (3 h): 3.7 meq/L; LDH (3 h): 72.6 IU/L; Na (3 h): 141.2 meq/L; PL (3 h): 149.8 mg/dL; RALB (3 h): 2.5 g/dL; TBIL (3 h): 0.056 mg/dL; TC (3 h): 76.8 mg/dL; TG (3 h): 128.2 mg/dL; TP (3 h): 5.6 g/dL; gamma-GTP (3 h): 1 IU/L; TERMINAL_BW (6 h): 206.4 g; APTT (6 h): 14.9 s; Bas (6 h): 0%; Eos (6 h): 1%; Fbg (6 h): 279.2 mg/dL; Hb (6 h): 13 g/dL; Ht (6 h): 38%; Lym (6 h): 74.2%; MCH (6 h): 21.4 pg; MCHC (6 h): 34.1%; MCV (6 h): 62.8 fL; Mono (6 h): 2.6%; Neu (6 h): 21.6%; PT (6 h): 11.6 s; Plat (6 h): 134.9 x10_4/uL; RBC (6 h): 606 x10_4/ul; Ret (6 h): 8%; WBC (6 h): 104.9 x10_2/uL; KIDNEY_L (6 h): 0.9 g; KIDNEY_R (6 h): 0.9 g; KIDNEY_TOTAL (6 h): 1.8 g; LIVER (6 h): 8.5 g; A/G (6 h): 0.8; ALP (6 h): 1552.8 IU/L; ALT (6 h): 35.2 IU/L; AST (6 h): 75 IU/L; BUN (6 h): 9 mg/dL; CRE (6 h): 0.2 mg/dL; Ca (6 h): 10.8 mg/dL; Cl (6 h): 107.4 meq/L; DBIL (6 h): 0.024 mg/dL; GLC (6 h): 165 mg/dL; IP (6 h): 10 mg/dL; K (6 h): 4.2 meq/L; LDH (6 h): 67 IU/L; Na (6 h): 141.8 meq/L; PL (6 h): 131.6 mg/dL; RALB (6 h): 2.5 g/dL; TBIL (6 h): 0.062 mg/dL; TC (6 h): 71.2 mg/dL; TG (6 h): 59.4 mg/dL; TP (6 h): 5.7 g/dL; gamma-GTP (6 h): 1.4 IU/L
